Results: US5374713A, “Peptide inhibitors of phospholipase A2 purified from inflammatory sites” (Teijin Limited, priority 1990, dated 1994)
Ends that are not written are not given here.

Legend:
[1] = biological target: T1, phospholipase A2 from rat inflammatory sites (Rattus norvegicus, UniProt P14423); assay: Determination of inhibitory activity against phospholipase A2 (rat inflammatory sites); format: biochemical; conditions: phosphatidylethanolamine substrate, pH 9.0, 37° C., 10 minutes
T1 construct: rat inflammatory sites (Chang et al., J. Biochem., 102, 147-154, 1987); from tissue
T1 sequence (P14423 22-146): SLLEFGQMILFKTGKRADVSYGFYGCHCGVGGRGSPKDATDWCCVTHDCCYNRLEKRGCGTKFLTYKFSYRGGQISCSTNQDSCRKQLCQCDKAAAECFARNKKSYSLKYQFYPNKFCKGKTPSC
Experimental: (§1) The activity-measuring system was prepared by adding distilled water to 100 mM Tris-HCl (ph 9.0), 4 mM calcium chloride, 0.1 mM phosphatidylethanolamine (2,000 dpm/nmol), and 10 μl sample to adjust the total volume to 240 μl, and finally 10 μl of 0.1 ng/μ1 phospholipase A2 was added. The phospholipases A2 used were from human inflammatory sites (the joint fluid from patients with rheumatoid arthritis) (Hara et al., J. Biochem., 104, 326-328, 1988), rat inflammatory sites (Chang et al., J. Biochem., 102, 147-154, 1987), and porcine pancreas (Boehringer Manheim Co.). Phosphatidylethanolamine was purified from Escherichia coli cultured in a medium to which acetic acid was added.
(§2) The reactions were conducted at 37° C. with stirring for 10 minutes. The termination of the reaction and the extraction of fatty acids generated were carried out by the Dole's method (Dole et al., J. Biol. Chem., 235, 2595-2599, 1960) and the extracted fatty acid was determined with a scintillation counter.
(§3) The lyophilyzed sample obtained in Example 1 was dissolved again in 50% acetone-0.1% trifluoroacetic acid to adjust the concentration to 10 mg/ml. The solution was further diluted stepwise with the same buffer and the inhibitory activity of phospholipase A2 from inflammatory sites was determined at individual concentrations.

[2] = biological target: T2, phospholipase A2 from human inflammatory sites (the joint fluid from patients with rheumatoid arthritis) (Homo sapiens, UniProt P14555); assay: Determination of inhibitory activity against phospholipase A2 (human inflammatory sites); format: biochemical; conditions: phosphatidylethanolamine substrate, pH 9.0, 37° C., 10 minutes
T2 construct: from human inflammatory sites (the joint fluid from patients with rheumatoid arthritis); from tissue; host or cells: joint fluid from patients with rheumatoid arthritis
T2 sequence (P14555 21-144): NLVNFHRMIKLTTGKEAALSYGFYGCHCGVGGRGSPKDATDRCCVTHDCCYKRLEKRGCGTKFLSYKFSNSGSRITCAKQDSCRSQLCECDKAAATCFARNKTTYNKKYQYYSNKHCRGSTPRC
Experimental: as §1, §2, §3

## QKDAPDHQELNLDVSLQLPSR
[1]
  IC50: ~0.5 µM
[2]
  IC50: ~0.5 µM
